Measurements taken from patent US20150037397A1, “PHARMACEUTICAL COMPOSITIONS OF PYRIDINIUM AND QUINOLINIUM DERIVATIVES” (TRASLATIONAL CANCER DRUGS PHARMA, S.L., priority 2010, published 2015).

Assays:
[1] = Chemical stability of TCD717 in solution under stress conditions; format: physicochemical
Excerpt: The chemical stability of TCD717 (compound No. 6, Q=Br) in solution (which comprises MeOH/water 3:1 v/v and additional stress elements, as indicated in the Table) under various stress conditions is provided in the following Table.

[2] = pH solubility profiling in Titrisol buffers (HPLC after filtration); format: physicochemical; details: 24 h, room temperature
Description: The pH solubility profile of compound TCD717 (compound No. 6, Q=Br) was assessed at pH 2-8. […] The TCD717 concentration after filtration through a 0.22 μm pore size PVDF filter was determined using HPLC.

[3] = Solubility in saline solutions at different NaCl concentrations; format: physicochemical; details: NaCl 2, 5, 10, 20, 100 and 165 mM (FIG. 2)
Description: To obtain a greater insight on the sensitivity of the solubility for sodium and chloride ions, the solubility of TCD717 was tested in saline solutions at NaCl concentrations of 2, 5, 10, 20, 100 and 165 mM NaCl.

[4] = Solubility testing in lipophilic and amphiphilic vehicles; format: physicochemical
Description: The solubility of TCD717 was determined in selected vehicles. […] The undissolved fraction of TCD717 was separated by filtration through a 0.22 μm pore size PVDF filter, and the filtrate was diluted before analyzing the TCD717 content by HPLC.

[5] = Solubility in simulated biological media and dilution media; format: physicochemical; details: for Solubility of TCD717: 24 h stirring, room temperature
[6] = format: physicochemical
Description: The solubility of solid TCD717 at room temperature in prototype vehicles suitable for intravenous formulation and the behavior after five-fold dilution with 0.9% NaCl solutions was tested. Formulations were prepared by dissolving the components in water at the indicated concentration.

Structure (SMILES): CN(c1ccc(Cl)cc1)c1cc[n+](Cc2ccc(-c3ccc(C[n+]4ccc(N(C)c5ccc(Cl)cc5)c5ccccc54)cc3)cc2)c2ccccc12.[Br-].[Br-] [TCD717]
- Observation (chemical stability) ([1]; MeOH/water 3:1 v/v, 0.1M HCl/1 day): No degradation observed
- Observation (chemical stability), degradation ([1]; MeOH/water 3:1 v/v, 0.1M NaOH/1 day): Some degradation (~6%)
- Observation (chemical stability) ([1]; MeOH/water 3:1 v/v, 3% H2O2 + 0.1M HCl): Complete degradation
- Observation (chemical stability) ([1]; MeOH/water 3:1 v/v, 3% H2O2 + 0.1M NaOH): Complete degradation
- Observation (chemical stability) ([1]; MeOH/water 3:1 v/v, 3% H2O2/1 day): No degradation observed
- Stability ([1]; combinations of acidic/oxidizing and basic/oxidizing conditions): very unstable
- Stability ([1]; under basic conditions): only moderately stable
- TCD717 concentration (solubility) ([2]; Boron acid/HCl/NaOH 110 mM (Tritrisol), buffer pH 8): 3 µg/mL
- TCD717 concentration (solubility) ([2]; Citrate/HCl 30 mM (Tritrisol), buffer pH 2): 45 µg/mL
- TCD717 concentration (solubility) ([2]; Citrate/HCl 40 mM (Tritrisol), buffer pH 3): 32 µg/mL
- TCD717 concentration (solubility) ([2]; Citrate/HCl 56 mM (Tritrisol), buffer pH 4): 8 µg/mL
- TCD717 concentration (solubility) ([2]; Citrate/NaOH 60 mM (Tritrisol), buffer pH 6): 62 µg/mL
- TCD717 concentration (solubility) ([2]; Citrate/NaOH 96 mM (Tritrisol), buffer pH 5): 6 µg/mL
- TCD717 concentration (solubility) ([2]; Phosphate (K + Na+) 67 mM (Tritrisol), buffer pH 7): 860 µg/mL
- TCD717 concentration (solubility) ([2]; Water, suspended at 5 mg/ml): 200 µg/mL
- Aqueous solubility as a function of NaCl concentration [3]: decreases at NaCl concentrations above 20 mM
- Solubility ([4]; Cremophor EL35, at least 24 h at 45° C.): 0.78 mg/g
- Solubility ([4]; Miglyol 812, at least 24 h at 45° C.): 0.002 mg/g
- Solubility ([4]; Solutol HS15, at least 24 h at 45° C.): 2.3 mg/g
- Affinity for detergents ([4]; Solutol HS 15 and Tween 80): low affinity
- Solubility ([4]; Soya oil, at least 24 h at 45° C.): 0.015 mg/g
- Solubility ([4]; Tween 80, at least 24 h at 45° C.): 3.1 mg/g
- Solubility ([4]; soy oil and Miglyol): very low
- Solubility of TCD717 ([5]; Glucose 5% (w/v)): 260 µg/mL
- Solubility of TCD717 ([5]; Human Serum Albumin 2% (w/v)): 275 µg/mL
- Solubility of TCD717 ([5]; Saline 0.9% (w/v)): 9 µg/mL
- Solubility of TCD717 ([5]; Water): 200 µg/mL
- Solubility in aqueous NaCl 0.9% ([5]; aqueous NaCl 0.9%): 9 µg/mL
- Solubility in water ([5]; water at 25° C.): 200 µg/mL
- Solubilization potential of the solubilizing agent for TCD717 [6]: highest solubilization potential
- Precipitation after dilution ([6]; HP-β-CD composition, five-fold dilution with 0.9% NaCl solutions): no precipitation
